Assays:
[1] = test system: HCT-116 cells; experiment: Antiproliferative activity, CCK-8, HCT-116; format: cell-based, human
Procedure: (§1) The tumor cells used were purchased from commercial cell banks (HCT116 purchased from ATCC, SKM 1 purchased from JCRB). The growth inhibition of cells was detected using the CCK-8 method. The specific steps were as follows. Cells in the logarithmic growth phase were seeded into a 96 well culture plate at an appropriate density, with 90 μL/well. After overnight cultivation, different concentrations of drugs were added for treatment for 72 h, with each concentration in triplicate, and corresponding concentration of vehicle control and cell-free blank wells were also set. After the treatment, 10 μL of CCK-8 was added to each well and the plate was incubated in an incubator for 2-4 hours, and the optical density (OD value) at a wavelength of 450 nm was measured using a SpectraMax 190 microplate reader. […] The experiment was repeated twice, and the mean value and SD were calculated.

[2] = test system: SKM-1 cells; experiment: Antiproliferative activity, CCK-8, SKM-1; format: cell-based, human
Procedure: as §1
With reference to HCT-116 cell proliferation inhibition test method, the inhibitory activity of the compounds on the proliferation of human myelodysplastic syndrome cell SKM-1 was tested.

[3] = biological target: HDAC1 (Homo sapiens (Human), UniProt Q13547); experiment: In vitro histone deacetylase activity assay (HTRF), HDAC1; format: biochemical; conditions: H3(1-21) K9Ac biotin substrate
Procedure: (§2) Human recombinant HDAC family proteins with His and GST tags were expressed using insect baculovirus expression system, and a biologically active HDAC family recombinant protein was obtained through Ni affinity column protein purification. HTRF detection method was used with H3(1-21) K9Ac biotin as the substrate. […] Briefly, 20 μl of the activity testing system included the HDAC substrate (0.2 μM. 4 μl), the Human Recombinant Protein HDAC (2-5 ng)/μl.

[4] = biological target: HDAC6 (Homo sapiens (Human), UniProt Q9UBN7); experiment: In vitro histone deacetylase activity assay (HTRF), HDAC6; format: biochemical; conditions: H3(1-21) K9Ac biotin substrate
Procedure: as §2

[5] = biological target: HDAC2 (Homo sapiens (Human), UniProt Q92769); experiment: HDAC subtype inhibitory activity (HTRF), HDAC2; format: biochemical
Procedure: as §2

[6] = biological target: HDAC3 (Homo sapiens (Human), UniProt O15379); experiment: HDAC subtype inhibitory activity (HTRF), HDAC3; format: biochemical
Procedure: as §2

[7] = biological target: HDAC8 (Homo sapiens (Human), UniProt Q9BY41); experiment: HDAC subtype inhibitory activity (HTRF), HDAC8; format: biochemical
Procedure: as §2

[8] = biological target: HDAC10 (Homo sapiens (Human), UniProt Q969S8); experiment: HDAC subtype inhibitory activity (HTRF), HDAC10; format: biochemical
Procedure: as §2

Sequence of HDAC1 (Q13547 whole entry): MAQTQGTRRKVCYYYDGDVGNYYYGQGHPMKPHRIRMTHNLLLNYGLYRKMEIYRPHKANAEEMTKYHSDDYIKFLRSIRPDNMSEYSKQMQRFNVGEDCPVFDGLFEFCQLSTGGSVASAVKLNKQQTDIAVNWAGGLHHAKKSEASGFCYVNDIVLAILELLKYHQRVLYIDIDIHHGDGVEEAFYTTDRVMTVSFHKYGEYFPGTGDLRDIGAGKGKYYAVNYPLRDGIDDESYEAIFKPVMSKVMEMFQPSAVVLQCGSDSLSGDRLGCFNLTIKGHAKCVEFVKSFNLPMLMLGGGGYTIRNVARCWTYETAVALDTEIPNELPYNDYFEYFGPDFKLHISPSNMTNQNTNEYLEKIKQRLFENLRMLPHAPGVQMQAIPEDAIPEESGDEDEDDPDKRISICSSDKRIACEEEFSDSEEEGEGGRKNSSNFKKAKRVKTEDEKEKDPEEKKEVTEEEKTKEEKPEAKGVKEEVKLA
Sequence of HDAC6 (Q9UBN7 whole entry): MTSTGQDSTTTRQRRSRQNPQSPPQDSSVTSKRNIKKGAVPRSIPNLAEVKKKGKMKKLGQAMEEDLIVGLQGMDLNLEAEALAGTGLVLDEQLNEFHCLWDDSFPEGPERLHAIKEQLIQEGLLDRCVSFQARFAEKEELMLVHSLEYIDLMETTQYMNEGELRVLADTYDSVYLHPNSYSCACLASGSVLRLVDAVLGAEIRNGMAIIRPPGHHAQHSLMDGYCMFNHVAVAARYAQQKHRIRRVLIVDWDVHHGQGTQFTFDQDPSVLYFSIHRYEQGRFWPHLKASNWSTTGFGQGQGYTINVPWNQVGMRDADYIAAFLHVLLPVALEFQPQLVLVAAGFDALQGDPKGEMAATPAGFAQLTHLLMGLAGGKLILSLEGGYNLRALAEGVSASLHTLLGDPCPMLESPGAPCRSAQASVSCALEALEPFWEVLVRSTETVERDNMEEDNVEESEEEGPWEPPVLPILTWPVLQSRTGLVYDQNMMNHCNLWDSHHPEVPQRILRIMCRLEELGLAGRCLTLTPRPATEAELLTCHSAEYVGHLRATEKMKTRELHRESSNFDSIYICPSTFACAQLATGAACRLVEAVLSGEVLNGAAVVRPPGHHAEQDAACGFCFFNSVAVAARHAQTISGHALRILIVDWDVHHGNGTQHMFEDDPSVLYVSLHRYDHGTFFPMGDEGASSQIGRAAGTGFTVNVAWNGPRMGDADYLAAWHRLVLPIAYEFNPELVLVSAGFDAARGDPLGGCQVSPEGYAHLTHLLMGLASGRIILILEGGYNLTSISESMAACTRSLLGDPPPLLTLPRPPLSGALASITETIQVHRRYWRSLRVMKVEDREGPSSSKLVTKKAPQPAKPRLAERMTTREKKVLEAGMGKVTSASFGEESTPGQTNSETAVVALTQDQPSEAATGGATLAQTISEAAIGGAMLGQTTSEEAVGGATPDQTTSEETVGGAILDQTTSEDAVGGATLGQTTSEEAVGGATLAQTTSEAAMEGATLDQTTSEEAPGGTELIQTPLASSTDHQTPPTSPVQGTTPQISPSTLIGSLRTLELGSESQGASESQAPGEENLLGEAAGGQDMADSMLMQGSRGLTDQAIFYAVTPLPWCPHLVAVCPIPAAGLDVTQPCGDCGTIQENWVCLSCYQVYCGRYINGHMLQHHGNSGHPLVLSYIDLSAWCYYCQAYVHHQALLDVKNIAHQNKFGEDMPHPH
Sequence of HDAC10 (Q969S8 whole entry): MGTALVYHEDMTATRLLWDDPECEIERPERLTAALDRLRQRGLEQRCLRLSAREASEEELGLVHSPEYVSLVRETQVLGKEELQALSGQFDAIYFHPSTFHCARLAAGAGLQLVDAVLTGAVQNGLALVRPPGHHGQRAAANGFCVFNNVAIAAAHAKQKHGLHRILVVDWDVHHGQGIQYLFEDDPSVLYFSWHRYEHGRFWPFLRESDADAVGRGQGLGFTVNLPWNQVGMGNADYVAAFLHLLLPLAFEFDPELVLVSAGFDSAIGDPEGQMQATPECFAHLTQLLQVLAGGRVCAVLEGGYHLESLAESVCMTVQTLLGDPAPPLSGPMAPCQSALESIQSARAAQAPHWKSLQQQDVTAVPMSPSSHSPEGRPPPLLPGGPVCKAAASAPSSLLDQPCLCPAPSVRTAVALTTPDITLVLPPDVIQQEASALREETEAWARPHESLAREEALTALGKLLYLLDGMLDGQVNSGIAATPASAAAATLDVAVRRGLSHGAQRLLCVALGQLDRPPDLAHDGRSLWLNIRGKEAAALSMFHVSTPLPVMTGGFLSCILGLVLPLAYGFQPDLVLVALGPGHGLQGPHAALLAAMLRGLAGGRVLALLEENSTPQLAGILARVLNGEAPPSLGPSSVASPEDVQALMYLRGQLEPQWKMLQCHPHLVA
Sequence of HDAC8 (Q9BY41 whole entry): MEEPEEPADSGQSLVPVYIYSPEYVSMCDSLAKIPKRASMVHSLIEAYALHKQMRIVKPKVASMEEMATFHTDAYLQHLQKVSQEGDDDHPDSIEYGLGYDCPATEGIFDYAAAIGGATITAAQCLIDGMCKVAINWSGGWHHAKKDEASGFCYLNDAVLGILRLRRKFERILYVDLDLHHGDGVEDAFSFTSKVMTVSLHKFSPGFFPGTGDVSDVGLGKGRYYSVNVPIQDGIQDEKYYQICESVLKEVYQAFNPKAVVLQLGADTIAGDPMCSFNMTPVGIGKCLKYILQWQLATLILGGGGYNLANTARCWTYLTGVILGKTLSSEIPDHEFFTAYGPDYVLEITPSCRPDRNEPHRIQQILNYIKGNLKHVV
Sequence of HDAC2 (Q92769 whole entry): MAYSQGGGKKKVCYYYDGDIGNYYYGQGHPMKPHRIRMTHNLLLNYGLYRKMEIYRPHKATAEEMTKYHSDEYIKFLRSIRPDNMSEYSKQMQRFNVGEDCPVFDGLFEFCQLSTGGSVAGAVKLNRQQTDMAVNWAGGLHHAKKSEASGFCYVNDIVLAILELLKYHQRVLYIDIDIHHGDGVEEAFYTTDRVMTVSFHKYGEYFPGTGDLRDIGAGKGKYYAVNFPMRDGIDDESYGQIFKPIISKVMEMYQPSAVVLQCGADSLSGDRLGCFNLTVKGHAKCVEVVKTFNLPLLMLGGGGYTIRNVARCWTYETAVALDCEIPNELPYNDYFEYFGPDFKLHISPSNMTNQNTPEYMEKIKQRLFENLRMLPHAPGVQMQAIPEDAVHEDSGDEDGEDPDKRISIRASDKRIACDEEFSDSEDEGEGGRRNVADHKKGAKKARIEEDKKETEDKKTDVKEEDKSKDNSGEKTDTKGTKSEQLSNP
Sequence of HDAC3 (O15379 whole entry): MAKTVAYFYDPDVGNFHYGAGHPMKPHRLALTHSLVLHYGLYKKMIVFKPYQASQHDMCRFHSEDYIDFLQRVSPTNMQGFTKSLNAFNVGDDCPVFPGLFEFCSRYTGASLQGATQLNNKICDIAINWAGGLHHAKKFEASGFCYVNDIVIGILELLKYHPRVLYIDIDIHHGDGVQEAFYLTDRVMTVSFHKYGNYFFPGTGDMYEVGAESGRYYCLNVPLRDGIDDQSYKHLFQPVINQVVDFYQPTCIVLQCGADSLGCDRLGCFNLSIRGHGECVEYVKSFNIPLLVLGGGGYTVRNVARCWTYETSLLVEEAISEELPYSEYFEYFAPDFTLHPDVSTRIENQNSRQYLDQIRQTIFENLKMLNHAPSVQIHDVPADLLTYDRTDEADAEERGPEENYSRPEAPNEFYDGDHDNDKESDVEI
Sequence of HDAC3 (Q9Y618 395-489 partner): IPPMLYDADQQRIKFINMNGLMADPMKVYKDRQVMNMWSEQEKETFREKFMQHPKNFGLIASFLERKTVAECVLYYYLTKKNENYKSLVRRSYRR

Structure (SMILES) | IC50 ([1]; Homo sapiens, HCT-116, 72 h) | IC50 ([2]; Homo sapiens, SKM-1, 72 h) | IC50 [3] | IC50 [4] | IC50 [5] | IC50 [6] | IC50 [7] | IC50 [8] | IC50 ([1]; 72 h) | IC50 ([2]; 72 h)
CC(c1ccc(C(=O)Nc2ccccc2N)cc1)n1nc(-c2ccc(CN(C)C)cc2)ccc1=O (racemic) [HYH-072 (racemate of I-2), reference compound] | 110 ± 7 nM | 90 ± 4 nM | – | – | – | – | – | – | – | –
CC(c1ccc(C(=O)Nc2ccc(F)cc2N)cc1)n1nc(-c2ccc(CN(C)C)cc2)ccc1=O (racemic) [HYH-073 (racemate of I-1), reference compound] | 380 ± 1 nM | 230 ± 10 nM | – | – | – | – | – | – | – | –
Nc1cc(F)ccc1NC(=O)c1ccc(CNC(=O)/C=C/c2cccnc2)cc1 [Chidamide, reference compound] | 1700 ± 105 nM | 550 ± 4 nM | – | – | – | – | – | – | – | –
C[C@@H](c1ccc(C(=O)Nc2ccccc2N)cc1)n1nc(-c2ccc(CN(C)C)cc2)ccc1=O [Compound I-2] | 80 ± 2 nM | 60 ± 1 nM | 23.3 ± 1.1 nM | > 10000 nM | 90 ± 2 nM | 390 ± 28 nM | > 100000 nM | > 100000 nM | – | –
C[C@@H](c1ccc(C(=O)Nc2ccccc2N)cc1)n1nc(-c2cccc(Cl)c2)ccc1=O [Compound I-3] | 390 ± 6 nM | 270 ± 13 nM | 52.4 ± 10.2 nM | > 10000 nM | – | – | – | – | – | –
COc1cccc(-c2ccc(=O)n([C@@H](C)c3ccc(C(=O)Nc4ccccc4N)cc3)n2)c1 [Compound I-4] | 230 ± 4 nM | 160 ± 1 nM | 35.2 ± 4.47 nM | > 10000 nM | – | – | – | – | – | –
C[C@@H](c1ccc(C(=O)Nc2ccccc2N)cc1)n1nc(-c2cnn(C)c2)ccc1=O [Compound I-5] | 280 ± 8 nM | 200 ± 1 nM | 124 ± 24.4 nM | > 10000 nM | – | – | – | – | – | –
C[C@@H](c1ccc(C(=O)Nc2ccccc2N)cc1)n1nc(-c2ccncc2)ccc1=O [Compound I-6] | 330 ± 4 nM | 240 ± 11 nM | 60.5 ± 5.73 nM | > 10000 nM | – | – | – | – | – | –
C[C@@H](c1ccc(C(=O)Nc2cc(F)c(F)cc2N)cc1)n1nc(-c2ccc(CN(C)C)cc2)ccc1=O [Compound I-7] | 310 ± 18 nM | 210 ± 5 nM | 99.5 ± 11.1 nM | > 10000 nM | – | – | – | – | – | –
COc1ccc(NC(=O)c2ccc([C@H](C)n3nc(-c4ccc(CN(C)C)cc4)ccc3=O)cc2)c(N)c1 [Compound I-8] | 870 ± 37 nM | 490 ± 16 nM | 126 ± 18.3 nM | > 10000 nM | – | – | – | – | – | –
C[C@@H](c1ccc(C(=O)Nc2cccc(F)c2N)cc1)n1nc(-c2ccc(CN(C)C)cc2)ccc1=O [Compound I-9] | 500 ± 65 nM | 340 ± 13 nM | 122 ± 11.1 nM | > 10000 nM | – | – | – | – | – | –
C[C@@H](c1ccc(C(=O)Nc2ccccc2N)cc1)n1nc(-c2ccccc2)ccc1=O [Compound I-10] | 400 ± 72 nM | – | 50.5 ± 13.7 nM | > 10000 nM | – | – | – | – | – | –
COc1ccc(N)c(NC(=O)c2ccc([C@H](C)n3nc(-c4ccc(CN(C)C)cc4)ccc3=O)cc2)c1 [Compound I-11] | – | – | 42.4 ± 0.8 nM | > 10000 nM | – | – | – | – | 310 ± 37 nM | 270 ± 19 nM
C[C@@H](c1ccc(C(=O)Nc2cc(F)ccc2N)cc1)n1nc(-c2ccc(CN(C)C)cc2)ccc1=O [Compound I-12] | 140 ± 4 nM | 100 nM | 31.3 ± 3.27 nM | > 10000 nM | – | – | – | – | – | –
Cc1ccc(N)c(NC(=O)c2ccc([C@H](C)n3nc(-c4ccc(CN(C)C)cc4)ccc3=O)cc2)c1 [Compound I-13] | – | – | 44.8 ± 1.53 nM | > 10000 nM | – | – | – | – | 220 ± 24 nM | 170 ± 2 nM
C[C@H](c1ccc(C(=O)Nc2ccc(F)cc2N)cc1)n1nc(-c2ccc(CN(C)C)cc2)ccc1=O [I-1 (R configuration), reference compound] | – | – | 375 ± 42.1 nM | > 10000 nM | 320 ± 48 nM | 720 ± 196 nM | > 100000 nM | > 100000 nM | 1550 ± 94 nM | 1060 ± 79 nM
Nc1ccccc1NC(=O)c1ccc(CNC(=O)OCc2cccnc2)cc1 [MS-275, Entinostat, reference compound] | 1480 ± 8 nM | 390 nM | – | – | – | – | – | – | – | –
